Measured values reported in patent US20210238170A1, “5,5-Difluoro- and 5-Fluoro-5-Methyl-C-Glycoside Derivatives Useful As Dual SGLT1 / SGLT2 Modulators” (Janssen Pharmaceutica NV, priority 2018, published 2021).

Legend:
human SGLT2 = biological target: T1, human SGLT2 (Homo sapiens, UniProt P31639); experiment: SGLT2 in vitro assay: Na-dependent 14C-AMG uptake in CHO-K1 cells stably expressing human SGLT2; assay type: cell-based; conditions: CHO-K1 cells expressing human SGLT2
T1 construct: expressed in transfected cells
T1 sequence (P31639 1-672): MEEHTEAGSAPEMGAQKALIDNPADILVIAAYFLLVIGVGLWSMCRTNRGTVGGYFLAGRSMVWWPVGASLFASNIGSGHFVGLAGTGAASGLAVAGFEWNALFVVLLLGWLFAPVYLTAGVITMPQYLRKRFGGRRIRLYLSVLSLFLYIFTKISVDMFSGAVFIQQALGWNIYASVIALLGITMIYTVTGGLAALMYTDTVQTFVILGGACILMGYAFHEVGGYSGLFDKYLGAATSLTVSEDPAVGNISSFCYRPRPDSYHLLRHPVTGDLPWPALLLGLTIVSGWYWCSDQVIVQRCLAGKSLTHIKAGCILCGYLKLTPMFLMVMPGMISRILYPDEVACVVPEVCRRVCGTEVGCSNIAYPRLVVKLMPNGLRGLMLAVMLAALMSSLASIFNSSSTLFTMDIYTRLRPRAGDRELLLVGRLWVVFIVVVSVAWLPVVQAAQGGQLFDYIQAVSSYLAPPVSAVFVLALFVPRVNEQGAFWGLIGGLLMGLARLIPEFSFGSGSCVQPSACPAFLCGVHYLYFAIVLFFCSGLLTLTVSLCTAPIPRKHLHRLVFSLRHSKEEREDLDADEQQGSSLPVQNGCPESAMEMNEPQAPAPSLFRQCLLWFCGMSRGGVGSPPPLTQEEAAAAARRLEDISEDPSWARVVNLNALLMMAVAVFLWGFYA
Outline: (§1)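 CHO-K1 cells stably expressing human SGLT1 or SGLT2, induced with 10 mM Na-butyrate for 24 h. Compounds (0.001–10 μM) in Na+-containing HEPES/Tris buffer pH 7.4 were applied for 10 min, then 14C-AMG ([…]) for 2 h at 37°C; Na-dependent uptake read by scintillation; %-inhibition or IC50.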

SD rats = experiment: Oral Glucose Tolerance Test (OGTT) in SD rats: blood glucose excursion AUC and urine glucose excretion; assay type: in vivo, rat; conditions: mean ± SE; for Urine Glucose Excretion (g/0-4 hr): n = 8
Description: Biological Example 2: In Vivo Assay
Oral Glucose Tolerance Test (OGTT) in SD Rats
Overnight fasted SD rats were allocated into vehicle or test compound treatment groups based on their body weights (n=8 in each group). The animals were orally dosed with vehicle or test compound at a volume of 10 ml/kg at 30-minute prior to OGTT. The animals then received an OGTT challenge with 2 g/kg (50% glucose solution at the volume of 4 ml/kg, orally). The animals were immediately transferred into metabolic cages after they were dosed with the glucose. Blood glucose levels were measured at 0 (pre-OGTT), 30, 60, and 120 minutes after OGTT using one-touch Glucometer. Blood glucose excursion AUC (area under the curve of blood glucose) was determined from the blood glucose levels measured at the timepoints.
Table 9 below, presents the measured efficacy of the test compound(s), expressed as the percentage (%) of blood glucose AUC vs that in vehicle group. The data is interpreted such that, the smaller the percentage of blood glucose AUC of compound vs vehicle, the greater the efficacy of the test compound. Urine volume and urine glucose concentrations (tested by using Olympus system with Genzyme diagnostics assay reagent) were measured to determine the urine glucose excretion (UGE) in 4-hr period after OGTT (0-4 hours).

human SGLT1 = biological target: T2, human SGLT1 (Homo sapiens, UniProt P13866); experiment: SGLT1 in vitro assay: Na-dependent 14C-AMG uptake in CHO-K1 cells stably expressing human SGLT1; assay type: cell-based; conditions: CHO-K1 cells expressing human SGLT1
T2 construct: expressed in transfected cells
T2 sequence (P13866 1-664): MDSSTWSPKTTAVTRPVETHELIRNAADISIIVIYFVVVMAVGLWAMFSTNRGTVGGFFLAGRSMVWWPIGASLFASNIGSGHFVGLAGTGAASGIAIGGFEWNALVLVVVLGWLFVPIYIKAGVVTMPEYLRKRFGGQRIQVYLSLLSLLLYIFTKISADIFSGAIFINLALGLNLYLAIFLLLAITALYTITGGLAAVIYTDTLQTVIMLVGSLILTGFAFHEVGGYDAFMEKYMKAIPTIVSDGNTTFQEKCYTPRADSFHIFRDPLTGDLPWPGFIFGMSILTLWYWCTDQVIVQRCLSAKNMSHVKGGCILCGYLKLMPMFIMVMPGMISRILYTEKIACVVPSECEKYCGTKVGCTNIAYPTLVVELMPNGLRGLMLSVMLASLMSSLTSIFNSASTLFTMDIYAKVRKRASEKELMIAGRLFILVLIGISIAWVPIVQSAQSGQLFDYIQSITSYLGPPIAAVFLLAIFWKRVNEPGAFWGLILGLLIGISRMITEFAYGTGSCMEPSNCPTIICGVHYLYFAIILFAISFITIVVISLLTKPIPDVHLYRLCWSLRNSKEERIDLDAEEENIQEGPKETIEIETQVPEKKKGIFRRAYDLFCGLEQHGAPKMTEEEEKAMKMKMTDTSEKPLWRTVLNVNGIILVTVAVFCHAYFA
Outline: as §1

inhibition at 0.3 µM (human SGLT2; 0.3 μM, read-out: SGLT2 % Inh @ 0.3 μM): 89.4%
IC50 (human SGLT2; 14C-AMG uptake): 2.1 nM
inhibition at 0.3 µM (human SGLT1; 0.3 μM, read-out: SGLT1 % Inh @ 0.3 μM): 45.3%
IC50 (human SGLT1; 14C-AMG uptake): 269 nM
SMILES: C[C@]1(F)[C@H](O)[C@@H](O)[C@H](c2cc(Cc3ccc4c(c3)OCCO4)c(Cl)cc2O)O[C@@H]1CO [Compound 3, (2S,3R,4R,5S,6R)-2-[4-chloro-5-(2,3-dihydro-1,4-benzodioxin-6-ylmethyl)-2-hydroxy-phenyl]-5-fluoro-6-(hydroxymethyl)-5-methyl-tetrahydropyran-3,4-diol]
response vs control in vivo at 1 mg/kg (SD rats; Rattus norvegicus, 2 h, oral dose 1 mg/kg, n = 8, read-out: 120-min Blood Glucose AUC vs Vehicle (%)): 91.3 ± 2%
response vs control in vivo at 10 mg/kg (SD rats; Rattus norvegicus, 2 h, oral dose 10 mg/kg, n = 8, read-out: 120-min Blood Glucose AUC vs Vehicle (%)): 69.3 ± 1.9%
Urine Glucose Excretion (g/0-4 hr) (SD rats; oral dose 1 mg/kg): 0.001 g/0-4 hr
Urine Glucose Excretion (g/0-4 hr) (SD rats; oral dose 10 mg/kg): 0.001 g/0-4 hr
